Results reported in ChEMBL document CHEMBL3046614, “Overexpression of the sterol 14α-demethylase gene (MgCYP51) in Mycosphaerella graminicola isolates confers a novel azole fungicide sensitivity phenotype” (Pest Manag Sci, 2012).
≈ marks a conversion by molar mass, not a printed value. Calls of active or inactive are those of the source. The calls are words filed in the database; no cut-off is given here.

These compounds were tested on Zymoseptoria tritici (assay: Fungicidal activity against Zymoseptoria tritici isolate IPO323 without 120 bp insertion expressing wild type CYP51 assessed as fungal growth inhibition).
Format: functional, organism-based

SMILES | EC50 [µg/mL]
O=C(Nc1ccccc1-c1ccc(Cl)cc1)c1cccnc1Cl [BOSCALID] | 0.554 (≈ 1610 nM)
Fc1ccc([C@]2(Cn3cncn3)O[C@H]2c2ccccc2Cl)cc1 [EPOXICONAZOLE] | 0.0015 (≈ 4.55 nM)
CC1(C)CCC(Cc2ccc(Cl)cc2)C1(O)Cn1cncn1 (stereo not drawn) [METCONAZOLE] | < 0.0002

These compounds were tested on Zymoseptoria tritici (assay: Fungicidal activity against Zymoseptoria tritici isolate TAG74-3 with 120 bp insertion expressing CYP51 variant with combination of L50S, S188N, I381V, deltaY459/G460 and N513K mutations inoculated on compound pre-treated wheat cultivar Riband seedlings assessed as fungal DNA level at 28.13 ppm measured 21 days post fungal inoculation).
Format: functional

SMILES | Activity [pg]
CC1(C)CCC(Cc2ccc(Cl)cc2)C1(O)Cn1cncn1 (stereo not drawn) [METCONAZOLE] | 1600

Each compound was assayed on Zymoseptoria tritici (assay: Fungicidal activity against Zymoseptoria tritici isolate V18 with 120 bp insertion expressing CYP51 variant with combination of L50S, S188N, I381V, deltaY459/G460 and N513K mutations assessed as fungal growth inhibition).
Format: functional, organism-based

SMILES | EC50 [µg/mL]
Fc1ccc([C@]2(Cn3cncn3)O[C@H]2c2ccccc2Cl)cc1 [EPOXICONAZOLE] | 0.759

These compounds were tested on Zymoseptoria tritici (assay: Fungicidal activity against Zymoseptoria tritici isolate TAG74-3 with 120 bp insertion expressing CYP51 variant with combination of L50S, S188N, I381V, deltaY459/G460 and N513K mutations inoculated on compound pre-treated wheat cultivar Riband seedlings assessed as fungal DNA level at 39.06 ppm measured 21 days post fungal inoculation).
Format: functional

SMILES | Activity [pg]
Fc1ccc([C@]2(Cn3cncn3)O[C@H]2c2ccccc2Cl)cc1 [EPOXICONAZOLE] | 9284

These compounds were tested on Zymoseptoria tritici (assay: Fungicidal activity against Zymoseptoria tritici isolate R10-13 without 120 bp insertion expressing CYP51 variant with combination of L50S, S188N, I381V, deltaY459/G460 and N513K mutations assessed as fungal growth inhibition).
Format: functional, organism-based

SMILES | EC50 [µg/mL]
Fc1ccc([C@]2(Cn3cncn3)O[C@H]2c2ccccc2Cl)cc1 [EPOXICONAZOLE] | 0.091
CC1(C)CCC(Cc2ccc(Cl)cc2)C1(O)Cn1cncn1 (stereo not drawn) [METCONAZOLE] | 0.097

Each compound was assayed on Zymoseptoria tritici (assay: Fungicidal activity against Zymoseptoria tritici isolate R10-13 without 120 bp insertion expressing CYP51 variant with combination of L50S, S188N, I381V, deltaY459/G460 and N513K mutations inoculated on compound pre-treated wheat cultivar Riband seedlings assessed as fungal DNA level at 28.13 ppm measured 21 days post fungal inoculation).
Format: functional

SMILES | Activity [pg]
CC1(C)CCC(Cc2ccc(Cl)cc2)C1(O)Cn1cncn1 (stereo not drawn) [METCONAZOLE] | 106

What follows are compounds tested on Zymoseptoria tritici (assay: Fungicidal activity against Zymoseptoria tritici isolate OP7 with 120 bp insertion expressing CYP51 variant with combination of L50S, S188N, I381V, deltaY459/G460 and N513K mutations inoculated on compound pre-treated wheat cultivar Riband seedlings assessed as fungal DNA level at 39.06 ppm measured 21 days post fungal inoculation).
Format: functional

SMILES | Activity [pg]
Fc1ccc([C@]2(Cn3cncn3)O[C@H]2c2ccccc2Cl)cc1 [EPOXICONAZOLE] | 1600

Each compound was assayed on Zymoseptoria tritici (assay: Fungicidal activity against Zymoseptoria tritici isolate TAG1-18 with 120 bp insertion expressing CYP51 variant with combination of L50S, S188N, I381V, deltaY459/G460 and N513K mutations assessed as fungal growth inhibition).
Format: functional, organism-based

SMILES | EC50 [µg/mL]
O=C(Nc1ccccc1-c1ccc(Cl)cc1)c1cccnc1Cl [BOSCALID] | 0.976
Fc1ccc([C@]2(Cn3cncn3)O[C@H]2c2ccccc2Cl)cc1 [EPOXICONAZOLE] | 0.911
CC1(C)CCC(Cc2ccc(Cl)cc2)C1(O)Cn1cncn1 (stereo not drawn) [METCONAZOLE] | 0.602

Each compound was assayed on Zymoseptoria tritici (assay: Fungicidal activity against Zymoseptoria tritici isolate TAG74-3 with 120 bp insertion expressing CYP51 variant with combination of L50S, S188N, I381V, deltaY459/G460 and N513K mutations inoculated on compound pre-treated wheat cultivar Riband seedlings assessed as pycnidia formation at doses > 1/16 recommended field rate measured 21 days post fungal inoculation).
Format: functional, organism-based

SMILES | Activity
Fc1ccc([C@]2(Cn3cncn3)O[C@H]2c2ccccc2Cl)cc1 [EPOXICONAZOLE] | Active
CC1(C)CCC(Cc2ccc(Cl)cc2)C1(O)Cn1cncn1 (stereo not drawn) [METCONAZOLE] | Active

The compounds below were run on Zymoseptoria tritici (assay: Fungicidal activity against Zymoseptoria tritici isolate OP7 with 120 bp insertion expressing CYP51 variant with combination of L50S, S188N, I381V, deltaY459/G460 and N513K mutations inoculated on compound pre-treated wheat cultivar Riband seedlings assessed as pycnidia formation at 39.06 ppm measured 21 days post fungal inoculation).
Format: functional, organism-based

SMILES | Activity
Fc1ccc([C@]2(Cn3cncn3)O[C@H]2c2ccccc2Cl)cc1 [EPOXICONAZOLE] | inactive

Each compound was assayed on Zymoseptoria tritici (assay: Fungicidal activity against Zymoseptoria tritici isolate R03-29 without 120 bp insertion expressing CYP51 variant with combination of L50S, S188N, I381V, deltaY459/G460 and N513K mutations assessed as fungal growth inhibition).
Format: functional, organism-based

SMILES | EC50 [µg/mL]
O=C(Nc1ccccc1-c1ccc(Cl)cc1)c1cccnc1Cl [BOSCALID] | 0.21
Fc1ccc([C@]2(Cn3cncn3)O[C@H]2c2ccccc2Cl)cc1 [EPOXICONAZOLE] | 0.067
CC1(C)CCC(Cc2ccc(Cl)cc2)C1(O)Cn1cncn1 (stereo not drawn) [METCONAZOLE] | 0.032

These compounds were tested on Zymoseptoria tritici (assay: Fungicidal activity against Zymoseptoria tritici isolate OP6 without 120 bp insertion expressing CYP51 variant with combination of L50S, S188N, I381V, deltaY459/G460 and N513K mutations assessed as fungal growth inhibition).
Format: functional, organism-based

SMILES | EC50 [µg/mL]
O=C(Nc1ccccc1-c1ccc(Cl)cc1)c1cccnc1Cl [BOSCALID] | 0.841
Fc1ccc([C@]2(Cn3cncn3)O[C@H]2c2ccccc2Cl)cc1 [EPOXICONAZOLE] | 0.085
CC1(C)CCC(Cc2ccc(Cl)cc2)C1(O)Cn1cncn1 (stereo not drawn) [METCONAZOLE] | 0.051

The compounds below were run on Zymoseptoria tritici (assay: Fungicidal activity against Zymoseptoria tritici isolate OP7 with 120 bp insertion expressing CYP51 variant with combination of L50S, S188N, I381V, deltaY459/G460 and N513K mutations inoculated on compound pre-treated wheat cultivar Riband seedlings assessed as fungal DNA level at 28.13 ppm measured 21 days post fungal inoculation).
Format: functional

SMILES | Activity [pg]
CC1(C)CCC(Cc2ccc(Cl)cc2)C1(O)Cn1cncn1 (stereo not drawn) [METCONAZOLE] | 5674

The compounds below were run on Zymoseptoria tritici (assay: Fungicidal activity against Zymoseptoria tritici isolate TAG74-3 with 120 bp insertion expressing CYP51 variant with combination of L50S, S188N, I381V, deltaY459/G460 and N513K mutations inoculated on compound pre-treated wheat cultivar Riband seedlings assessed as fungal DNA level at doses > 1/16 recommended field rate measured 21 days post fungal inoculation).
Format: functional, organism-based

SMILES | Activity
Fc1ccc([C@]2(Cn3cncn3)O[C@H]2c2ccccc2Cl)cc1 [EPOXICONAZOLE] | Active
CC1(C)CCC(Cc2ccc(Cl)cc2)C1(O)Cn1cncn1 (stereo not drawn) [METCONAZOLE] | Active

What follows are compounds tested on Zymoseptoria tritici (assay: Fungicidal activity against Zymoseptoria tritici isolate OP7 with 120 bp insertion expressing CYP51 variant with combination of L50S, S188N, I381V, deltaY459/G460 and N513K mutations inoculated on compound pre-treated wheat cultivar Riband seedlings assessed as fungal DNA level at doses > 1/16 recommended field rate measured 21 days post fungal inoculation).
Format: functional, organism-based

SMILES | Activity
Fc1ccc([C@]2(Cn3cncn3)O[C@H]2c2ccccc2Cl)cc1 [EPOXICONAZOLE] | Active
CC1(C)CCC(Cc2ccc(Cl)cc2)C1(O)Cn1cncn1 (stereo not drawn) [METCONAZOLE] | Active

Each compound was assayed on Zymoseptoria tritici (assay: Fungicidal activity against Zymoseptoria tritici isolate OP7 with 120 bp insertion expressing CYP51 variant with combination of L50S, S188N, I381V, deltaY459/G460 and N513K mutations inoculated on compound pre-treated wheat cultivar Riband seedlings assessed as pycnidia formation at 28.13 ppm measured 21 days post fungal inoculation).
Format: functional, organism-based

SMILES | Activity
CC1(C)CCC(Cc2ccc(Cl)cc2)C1(O)Cn1cncn1 (stereo not drawn) [METCONAZOLE] | inactive

What follows are compounds tested on Zymoseptoria tritici (assay: Fungicidal activity against Zymoseptoria tritici isolate OP7 with 120 bp insertion expressing CYP51 variant with combination of L50S, S188N, I381V, deltaY459/G460 and N513K mutations inoculated on compound pre-treated wheat cultivar Riband seedlings assessed as pycnidia formation at doses > 1/16 recommended field rate measured 21 days post fungal inoculation).
Format: functional, organism-based

SMILES | Activity
Fc1ccc([C@]2(Cn3cncn3)O[C@H]2c2ccccc2Cl)cc1 [EPOXICONAZOLE] | Active
CC1(C)CCC(Cc2ccc(Cl)cc2)C1(O)Cn1cncn1 (stereo not drawn) [METCONAZOLE] | Active

Each compound was assayed on Zymoseptoria tritici (assay: Fungicidal activity against Zymoseptoria tritici isolate TAG74-3 with 120 bp insertion expressing CYP51 variant with combination of L50S, S188N, I381V, deltaY459/G460 and N513K mutations assessed as fungal growth inhibition).
Format: functional, organism-based

SMILES | EC50 [µg/mL]
O=C(Nc1ccccc1-c1ccc(Cl)cc1)c1cccnc1Cl [BOSCALID] | 0.719
Fc1ccc([C@]2(Cn3cncn3)O[C@H]2c2ccccc2Cl)cc1 [EPOXICONAZOLE] | 1.41
CC1(C)CCC(Cc2ccc(Cl)cc2)C1(O)Cn1cncn1 (stereo not drawn) [METCONAZOLE] | 1.39

What follows are compounds tested on Zymoseptoria tritici (assay: Fungicidal activity against Zymoseptoria tritici isolate TAG74-3 with 120 bp insertion expressing CYP51 variant with combination of L50S, S188N, I381V, deltaY459/G460 and N513K mutations inoculated on compound pre-treated wheat cultivar Riband seedlings assessed as pycnidia formation at 39.06 ppm measured 21 days post fungal inoculation).
Format: functional, organism-based

SMILES | Activity
Fc1ccc([C@]2(Cn3cncn3)O[C@H]2c2ccccc2Cl)cc1 [EPOXICONAZOLE] | inactive

Each compound was assayed on Zymoseptoria tritici (assay: Fungicidal activity against Zymoseptoria tritici isolate OP6 without 120 bp insertion expressing CYP51 variant with combination of L50S, S188N, I381V, deltaY459/G460 and N513K mutations inoculated on compound pre-treated wheat cultivar Riband seedlings assessed as fungal DNA level at 28.13 ppm measured 21 days post fungal inoculation).
Format: functional

SMILES | Activity [pg]
CC1(C)CCC(Cc2ccc(Cl)cc2)C1(O)Cn1cncn1 (stereo not drawn) [METCONAZOLE] | 65

What follows are compounds tested on Zymoseptoria tritici (assay: Fungicidal activity against Zymoseptoria tritici isolate OP7 with 120 bp insertion expressing CYP51 variant with combination of L50S, S188N, I381V, deltaY459/G460 and N513K mutations assessed as fungal growth inhibition).
Format: functional, organism-based

SMILES | EC50 [µg/mL]
O=C(Nc1ccccc1-c1ccc(Cl)cc1)c1cccnc1Cl [BOSCALID] | 0.808
Fc1ccc([C@]2(Cn3cncn3)O[C@H]2c2ccccc2Cl)cc1 [EPOXICONAZOLE] | 0.819
CC1(C)CCC(Cc2ccc(Cl)cc2)C1(O)Cn1cncn1 (stereo not drawn) [METCONAZOLE] | 0.821

The compounds below were run on Zymoseptoria tritici (assay: Fungicidal activity against Zymoseptoria tritici isolate OP6 without 120 bp insertion expressing CYP51 variant with combination of L50S, S188N, I381V, deltaY459/G460 and N513K mutations inoculated on compound pre-treated wheat cultivar Riband seedlings assessed as fungal DNA level at 39.06 ppm measured 21 days post fungal inoculation).
Format: functional

SMILES | Activity [pg]
Fc1ccc([C@]2(Cn3cncn3)O[C@H]2c2ccccc2Cl)cc1 [EPOXICONAZOLE] | 14

The compounds below were run on Zymoseptoria tritici (assay: Fungicidal activity against Zymoseptoria tritici isolate R03-54 without 120 bp insertion expressing CYP51 variant with combination of L50S, S188N, I381V, deltaY459/G460 and N513K mutations assessed as fungal growth inhibition).
Format: functional, organism-based

SMILES | EC50 [µg/mL]
O=C(Nc1ccccc1-c1ccc(Cl)cc1)c1cccnc1Cl [BOSCALID] | 0.766
Fc1ccc([C@]2(Cn3cncn3)O[C@H]2c2ccccc2Cl)cc1 [EPOXICONAZOLE] | 0.092

What follows are compounds tested on Zymoseptoria tritici (assay: Fungicidal activity against Zymoseptoria tritici isolate TAG74-3 with 120 bp insertion expressing CYP51 variant with combination of L50S, S188N, I381V, deltaY459/G460 and N513K mutations inoculated on compound pre-treated wheat cultivar Riband seedlings assessed as pycnidia formation at 28.13 ppm measured 21 days post fungal inoculation).
Format: functional, organism-based

SMILES | Activity
CC1(C)CCC(Cc2ccc(Cl)cc2)C1(O)Cn1cncn1 (stereo not drawn) [METCONAZOLE] | inactive

Each compound was assayed on Zymoseptoria tritici (assay: Fungicidal activity against Zymoseptoria tritici isolate R10-13 without 120 bp insertion expressing CYP51 variant with combination of L50S, S188N, I381V, deltaY459/G460 and N513K mutations inoculated on compound pre-treated wheat cultivar Riband seedlings assessed as fungal DNA level at 39.06 ppm measured 21 days post fungal inoculation).
Format: functional

SMILES | Activity [pg]
Fc1ccc([C@]2(Cn3cncn3)O[C@H]2c2ccccc2Cl)cc1 [EPOXICONAZOLE] | 400
